Measurements from US20060122153A1, “Antineoplastic ether lipid compounds with modifications at the sn-2 carbon” (priority 2003, published 2006).

Columns and labels:
[1] = test system: human tumor cell lines (9 panels); assay: NCI growth inhibition screen, all panels; type: cell-based; settings: for activity as compared to ET-18-OCH3 (in words): all NCI panels; for activity compared to ET-18-OCH3 isomers (in words): colon and CNS panels of cell lines
Procedure: (§1) Candidates deemed suitable for in vivo testing were then synthesized in large scale quantities and some of this material was sent to the NCI's Developmental Therapeutics Program for a battery of growth inhibitory studies against various human tumor cell lines (60 cell lines, 9 different panels). The remainder of the material was used to assess in vivo efficacy using murine tumor models. Additionally, studies were conducted on the lead candidates to discern mechanism of action with particular emphasis on these agents apoptotic ability as measured by caspase 3 activity. The details (materials and methods) for these various assays are described further in the following discussion.
(§2) Ten compounds were also sent to NCI's Drug Discovery Program for screening against numerous human tumor cell lines (9 panels total: renal ovarian, colon, CNS, non-small cell lung, leukemia, breast, melanoma, and prostate). The data are shown in FIGS. 2a-i which also include data regarding D- and L-ET-18-OCH3 (listed as L-EL and D-EL in the figures). Upon examining the data, one is struck by how 1R and 1a′S standout in comparison to the other compounds, especially for the renal, ovarian, colon, and CNS panels.

[2] = test system: ACHIN; assay: NCI growth inhibition screen, renal panel; type: cell-based, human; set-up: key: = means equivalent activity; + means that it appears to be significantly better (i.e., by ˜2x); < means it appears to be less active than ET18OCH3 (˜2x); a combination like =/+ or </+ means that activity is dependent upon the isomer; a combination like =/+ or </+ means that activity is dependent upon the isomer; settings: from GI50s
Procedure: as §1, §2

[3] = test system: CAK-1; assay: NCI growth inhibition screen, renal panel; type: cell-based, human; set-up: key: = means equivalent activity; + means that it appears to be significantly better (i.e., by ˜2x); < means it appears to be less active than ET18OCH3 (˜2x); a combination like =/+ or </+ means that activity is dependent upon the isomer; a combination like =/+ or </+ means that activity is dependent upon the isomer; settings: CAK-1, Renal; from GI50s
Procedure: as §1, §2

[4] = test system: RXF 393; assay: NCI growth inhibition screen, renal panel; type: cell-based, human; set-up: key: = means equivalent activity; + means that it appears to be significantly better (i.e., by ˜2x); < means it appears to be less active than ET18OCH3 (˜2x); a combination like =/+ or </+ means that activity is dependent upon the isomer; a combination like =/+ or </+ means that activity is dependent upon the isomer; settings: RXF 393, Renal; from GI50s
Procedure: as §1, §2

[5] = test system: SN12C; assay: NCI growth inhibition screen, renal panel; type: cell-based, human; set-up: key: = means equivalent activity; + means that it appears to be significantly better (i.e., by ˜2x); < means it appears to be less active than ET18OCH3 (˜2x); a combination like =/+ or </+ means that activity is dependent upon the isomer; a combination like =/+ or </+ means that activity is dependent upon the isomer; settings: from GI50s
Procedure: as §1, §2

[6] = test system: IGROV1; assay: NCI growth inhibition screen, ovarian panel; type: cell-based, human; set-up: key: = means equivalent activity; + means that it appears to be significantly better (i.e., by ˜2x); < means it appears to be less active than ET18OCH3 (˜2x); a combination like =/+ or </+ means that activity is dependent upon the isomer; a combination like =/+ or </+ means that activity is dependent upon the isomer; settings: from GI50s
Procedure: as §1, §2

[7] = test system: OVCAR-3; assay: NCI growth inhibition screen, ovarian panel; type: cell-based, human; set-up: key: = means equivalent activity; + means that it appears to be significantly better (i.e., by ˜2x); < means it appears to be less active than ET18OCH3 (˜2x); a combination like =/+ or </+ means that activity is dependent upon the isomer; a combination like =/+ or </+ means that activity is dependent upon the isomer; settings: OVCAR-3, Ovarian; from GI50s
Procedure: as §1, §2

[8] = test system: OVCAR-8; assay: NCI growth inhibition screen, ovarian panel; type: cell-based, human; set-up: key: = means equivalent activity; + means that it appears to be significantly better (i.e., by ˜2x); < means it appears to be less active than ET18OCH3 (˜2x); a combination like =/+ or </+ means that activity is dependent upon the isomer; a combination like =/+ or </+ means that activity is dependent upon the isomer; settings: OVCAR-8, Ovarian; from GI50s
Procedure: as §1, §2

[9] = test system: SK-OV-3; assay: NCI growth inhibition screen, ovarian panel; type: cell-based, human; set-up: key: = means equivalent activity; + means that it appears to be significantly better (i.e., by ˜2x); < means it appears to be less active than ET18OCH3 (˜2x); a combination like =/+ or </+ means that activity is dependent upon the isomer; a combination like =/+ or </+ means that activity is dependent upon the isomer; settings: SK-OV-3, Ovarian; from GI50s
Procedure: as §1, §2

[10] = test system: DU145; assay: NCI growth inhibition screen, prostate panel; type: cell-based, human; set-up: key: = means equivalent activity; + means that it appears to be significantly better (i.e., by ˜2x); < means it appears to be less active than ET18OCH3 (˜2x); a combination like =/+ or </+ means that activity is dependent upon the isomer; a combination like =/+ or </+ means that activity is dependent upon the isomer; settings: from GI50s
Procedure: as §1, §2

[11] = test system: PC-3; assay: NCI growth inhibition screen, prostate panel; type: cell-based, human; set-up: key: = means equivalent activity; + means that it appears to be significantly better (i.e., by ˜2x); < means it appears to be less active than ET18OCH3 (˜2x); a combination like =/+ or </+ means that activity is dependent upon the isomer; a combination like =/+ or </+ means that activity is dependent upon the isomer; settings: PC-3, Prostate; from GI50s
Procedure: as §1, §2

[12] = test system: HS 578T; assay: NCI growth inhibition screen, breast panel; type: cell-based, human; set-up: key: = means equivalent activity; + means that it appears to be significantly better (i.e., by ˜2x); < means it appears to be less active than ET18OCH3 (˜2x); a combination like =/+ or </+ means that activity is dependent upon the isomer; a combination like =/+ or </+ means that activity is dependent upon the isomer; settings: from GI50s
Procedure: as §1, §2

[13] = test system: MDA-MB-435; assay: NCI growth inhibition screen, breast panel; type: cell-based, human; set-up: key: = means equivalent activity; + means that it appears to be significantly better (i.e., by ˜2x); < means it appears to be less active than ET18OCH3 (˜2x); a combination like =/+ or </+ means that activity is dependent upon the isomer; a combination like =/+ or </+ means that activity is dependent upon the isomer; settings: MDA-MB-435, Breast; from GI50s
Procedure: as §1, §2

Compound | activity as compared to ET-18-OCH3 (in words) [1] | activity compared to ET-18-OCH3 isomers (in words) [1] | Performance as compared to ET-18-O—CH3 [2] | Performance as compared to ET-18-O—CH3 [3] | Performance as compared to ET-18-O—CH3 [4] | Performance as compared to ET-18-O—CH3 [5] | Performance as compared to ET-18-O—CH3 [6] | Performance as compared to ET-18-O—CH3 [7] | Performance as compared to ET-18-O—CH3 [8] | Performance as compared to ET-18-O—CH3 [9] | Performance as compared to ET-18-O—CH3 [10] | Performance as compared to ET-18-O—CH3 [11] | Performance as compared to ET-18-O—CH3 [12] | Performance as compared to ET-18-O—CH3 [13]
CCCCCCCCCCCCCCCCCCOC[C@@H](COP(=O)([O-])OCC[N+](C)(C)C)OS(C)(=O)=O [1a′S] | equal or greater in activity | more active than even the ET-18-OCH3 isomers | 0 | 0 | 32 | 0 | 0 | 0 | 0 | 0 | 0 | 0 | 0 | 0
CCCCCCCCCCCCCCCCCCOCC(COP(=O)([O-])OCC[N+](C)(C)C)OS(C)(=O)=O (stereo not shown) [Compound 1aR] | equal or greater in activity | more active than even the ET-18-OCH3 isomers | = | = | = | = | = | = | = | = | = | = | = | =
